This passage reports IC50 results from article PMC11931151, “Inhibition of carbohydrate digestive enzymes by a complementary essential oil blend: in silico and mixture design approaches” (Frontiers in Pharmacology, 2025).

This assay has as its target T1, intestinal α-glucosidase.
T1 construct: gene SI; called intestinal, sucrose as substrate (points to sucrase-isomaltase), but a commercial yeast enzyme cannot be excluded; docking model 2QMJ is human maltase-glucoamylase
As to the kind of experiment: sucrose hydrolysis, glucose oxidase-peroxidase, absorbance at […] nm. Type of assay: biochemical. The following applies: phosphate pH 7.5, 37 °C, 20 min pre-incubation, positive control.

Values after ≈ are worked out from the molar mass of the structure shown.

For the compound `C[C@H]1O[C@H](O[C@H]2[C@H](O)[C@@H](O)[C@@H](O[C@H]3[C@H](O)[C@@H](O)C(O)O[C@@H]3CO)O[C@@H]2CO)[C@H](O)[C@@H](O)[C@@H]1N[C@H]1C=C(CO)[C@@H](O)[C@H](O)[C@H]1O` (stereo partly shown) [acarbose], the IC50 – broadly, the concentration needed to halve the response being measured – worked out at 59 ± 9 µg/mL (≈ 91.4 µM).
